Experimental data taken from patent US4657927A, “Malonato platinum compounds” (Research Corporation, priority 1983, dated 1987).

Test system: Sarcoma 180
Test: Antitumor activity, solid sarcoma 180 tumor, T/C of tumor weights at day 10 (Table I)
Format: in vivo, female Swiss white mice
Experimental: The compounds of the invention were tested for antitumor activity, i.e., for sensitivity to a planar dsp^2 platinum(II) coordination compound or an octahedral d^2 sp^3 platinum(IV) coordination compound using our standard screening tumor, solid sarcoma 180 tumor in female Swiss white mice, following standard protocols for this testing as set by the National Cancer Institute. (Cancer Chemotherapy Rep., 25 (1962)).
For these tests an S 180 tumor taken from a sacrificed mouse was disected free of superfluous tissue and cut under sterile conditions into approximately 10 milligram size pieces. These tissue pieces were then implanted by trocar in the left axillary region, subcutaneously, in new mice. The mice were, on the average, approximately four weeks old and weighed 18-20 grams. Taking day 0 as the day of implant, the animals were sacrificed on day 10. The tumors were excised and weighed and the ratio of the weights of the tumors in mice in the treated animals to the control set of animals was obtained. This ratio, multiplied by 100, is given as the T/C ratio in Table I.
For the first set of tests the coordination compound was freshly dissolved in sterile distilled water and injected intraperitoneally on day 1 into each of the test mice. The volume of the injection was usually 1/2 ml. In some cases, in order to get an active dose into the animal where the chemical was not soluble in this amount of solvent, a fine dispersion was prepared of the dose needed for the test. Thus, some of our test results were obtained on animals where a slurry of the compound was injected. These are so noted in Table I below. In addition, for some of the compounds, there was injected about 1 ml of solution, either in one single injection, or in 2 injections given a few hours apart of 1/2 ml each. These injections were initially given in 4 different dose levels for each new compound with 6 mice in each dose level. The tests covered a dose range from a low ineffective dose, to an upper dose level which produced some deaths within the time period of the experiment.

[1] = 20 mg/kg, single i.p. injection day 1
[2] = 40 mg/kg, single i.p. injection day 1
[3] = 60 mg/kg, single i.p. injection day 1
[4] = 80 mg/kg, single i.p. injection day 1
[5] = 100 mg/kg, single i.p. injection day 1
[6] = 120 mg/kg, single i.p. injection day 1
[7] = 160 mg/kg, single i.p. injection day 1
[8] = 30 mg/kg, single i.p. injection day 1, solution in H2O
[9] = 40 mg/kg, single i.p. injection day 1, solution in H2O
[10] = 50 mg/kg, single i.p. injection day 1, solution in H2O
[11] = 60 mg/kg, single i.p. injection day 1, solution in H2O
[12] = 70 mg/kg, single i.p. injection day 1, solution in H2O
[13] = 80 mg/kg, single i.p. injection day 1, solution in H2O
[14] = dose level 40 (unit not given), single i.p. injection day 1
[15] = dose level 60 (unit not given), single i.p. injection day 1
[16] = dose level 80 (unit not given), single i.p. injection day 1
[17] = dose level 90 (unit not given), single i.p. injection day 1
[18] = dose level 100 (unit not given), single i.p. injection day 1
[19] = dose level 110 (unit not given), single i.p. injection day 1
[20] = dose level 120 (unit not given), single i.p. injection day 1
[21] = dose level 45 (unit not given), single i.p. injection day 1
[22] = dose level 75 (unit not given), single i.p. injection day 1
[23] = dose level 20 (unit not given), single i.p. injection day 1
[24] = 140 mg/kg, single i.p. injection day 1
[25] = 180 mg/kg, single i.p. injection day 1
[26] = 90 mg/kg, single i.p. injection day 1, solution in H2O

## N.N.O=C([O-])C1(C(=O)[O-])CCC1.[Pt+4] [1,1-cyclobutanedicarboxylate diammineplatinum (II)]
[1]
  No. of Deaths: 0
  T/C: 71
[2]
  No. of Deaths: 0
  T/C: 60
[3]
  No. of Deaths: 0
  T/C: 38
[4]
  No. of Deaths: 0
  T/C: 42
[5]
  No. of Deaths: 0
  T/C: 69
[6]
  No. of Deaths: 0
  T/C: 18
[7]
  No. of Deaths: 4
  T/C: 62

## CC1C(=O)[O][Pt]([NH2])([NH2])[O]C1=O [Methylmalonatodiammineplatinum (II)]
[8]
  No. of Deaths: 0
  T/C: 39
[9]
  No. of Deaths: 0
  T/C: 26
[10]
  No. of Deaths: 0
  T/C: 35
[11]
  No. of Deaths: 0
  T/C: 6
[12]
  No. of Deaths: 3/6
[13]
  No. of Deaths: 6/6

## CCC(C(=O)[O-])C(=O)[O-].N.N.[Pt+2] [ethylmalonatodiammineplatinum (II)]
[8]
  No. of Deaths: 0
  T/C: 57
[9]
  No. of Deaths: 0
  T/C: 43
[10]
  No. of Deaths: 0
  T/C: 47
[11]
  No. of Deaths: 0
  T/C: 39
[12]
  No. of Deaths: 0
  T/C: 17
[13]
  No. of Deaths: 0
  T/C: 16

## CCC1C(=O)[O][Pt]2([NH]CC[NH]2)[O]C1=O [ethylmalonatoethylenediamineplatinum (II)]
[14]
  No. of Deaths: 0
  T/C: 72
[15]
  No. of Deaths: 0
  T/C: 81
[16]
  No. of Deaths: 0
  T/C: 79
[17]
  No. of Deaths: 0
  T/C: 47
[18]
  No. of Deaths: 1
  T/C: 55
[19]
  No. of Deaths: 0
  T/C: 41
[20]
  No. of Deaths: 0
  T/C: 58

## CC(N)CN.O=C([O-])CC(=O)[O-].[Pt+2] [malonato-1,2 propylenediamineplatinum (II)]
[21]
  No. of Deaths: 0
  T/C: 50
[15]
  No. of Deaths: 1
  T/C: 9
[22]
  No. of Deaths: 3
  T/C: 16
[17]
  No. of Deaths: 5

## NCCCN.O=C([O-])CC(=O)[O-].[Pt+2] [malonato-1,3 propylenediamineplatinum (II)]
[23]
  No. of Deaths: 0
  T/C: 69
[14]
  No. of Deaths: 0
  T/C: 79
[15]
  No. of Deaths: 0
  T/C: 21
[16]
  No. of Deaths: 1
  T/C: 35

## CN.CN.O=C([O-])CC(=O)[O-].[Pt+2] [malonatobis (methylamine) platinum (II)]
[4]
  No. of Deaths: 0
  T/C: 58
[5]
  No. of Deaths: 0
  T/C: 53
[6]
  No. of Deaths: 0
  T/C: 28
[24]
  No. of Deaths: 0
  T/C: 25
[7]
  No. of Deaths: 1
  T/C: 17
[25]
  No. of Deaths: 1
  T/C: 19

## CC1C(=O)[O][Pt]2([NH]CC[NH]2)[O]C1=O [methylmalonatoethylenediamineplatinum(II)]
[8]
  No. of Deaths: 0
  T/C: 78
[9]
  No. of Deaths: 0
  T/C: 80
[10]
  No. of Deaths: 0
  T/C: 51
[11]
  No. of Deaths: 0
  T/C: 26
[12]
  No. of Deaths: 1
  T/C: 20
[26]
  No. of Deaths: 1
  T/C: 4
